Results as given in ChEMBL document CHEMBL1177878, “Synthesis and hypolipidemic activity of novel 2-(4-(2-substituted aminothiazole-4-yl) phenoxy) acetic acid derivatives” (Eur J Med Chem, 2010).

Key:
Rattus norvegicus [1] = test: Antihyperlipidemic activity in high fat diet-induced hyperlipidemic Sprague-Dawley rat model assessed as reduction of body weight at 50 mg/kg, po for 7 days; type: functional
Rattus norvegicus [2] = test: Antihyperlipidemic activity in high fat diet-induced hyperlipidemic Sprague-Dawley rat model assessed as reduction of body circumference at 50 mg/kg, po for 7 days; type: functional
Rattus norvegicus [3] = test: Toxicity in high fat diet-induced hyperlipidemic Sprague-Dawley rat model assessed as increase of locomotor activity at 50 mg/kg, po for 7 days measured for 5 mins; type: organism-based; parameters: dose 50 mg/kg, route oral; details: in vivo
Rattus norvegicus [4] = test: Antihyperlipidemic activity in high fat diet-induced hyperlipidemic Sprague-Dawley rat model assessed as reduction of blood cholesterol level at 50 mg/kg, po for 7 days (reference value: 128.8 +/- 1.20 mg/dl); type: functional
Rattus norvegicus [5] = test: Antihyperlipidemic activity in high fat diet-induced hyperlipidemic Sprague-Dawley rat model assessed as reduction of blood triglyceride level at 50 mg/kg, po for 7 days (reference value: 142.4 +/- 1.53 mg/dl); type: functional
Rattus norvegicus [6] = test: Antihyperlipidemic activity in high fat diet-induced hyperlipidemic Sprague-Dawley rat model assessed as reduction of blood LDL level at 50 mg/kg, po for 7 days (reference value: 51.8 +/- 2.03 mg/dl); type: functional
Rattus norvegicus [7] = test: Antihyperlipidemic activity in high fat diet-induced hyperlipidemic Sprague-Dawley rat model assessed as increase of blood HDL level at 50 mg/kg, po for 7 days (reference value: 18.6 +/- 1.36 mg/dl); type: functional
Rattus norvegicus [8] = test: Antihyperlipidemic activity in high fat diet-induced hyperlipidemic Sprague-Dawley rat model assessed as reduction of blood VLDL level at 50 mg/kg, po for 7 days (reference value: 26.2 +/- 1.20 mg/dl); type: functional
Rattus norvegicus [9] = test: Antihyperlipidemic activity in high fat diet-induced hyperlipidemic Sprague-Dawley rat model assessed as reduction of body weight at 250 mg/kg, po for 7 days; type: functional
Rattus norvegicus [10] = test: Antihyperlipidemic activity in high fat diet-induced hyperlipidemic Sprague-Dawley rat model assessed as reduction of body circumference at 250 mg/kg, po for 7 days; type: functional
Rattus norvegicus [11] = test: Toxicity in high fat diet-induced hyperlipidemic Sprague-Dawley rat model assessed as increase of locomotor activity at 250 mg/kg, po for 7 days measured for 5 mins; type: organism-based; parameters: dose 250 mg/kg, route oral; details: in vivo
Rattus norvegicus [12] = test: Antihyperlipidemic activity in high fat diet-induced hyperlipidemic Sprague-Dawley rat model assessed as reduction of blood cholesterol level at 250 mg/kg, po for 7 days (reference value: 128.8 +/- 1.20 mg/dl); type: functional
Rattus norvegicus [13] = test: Antihyperlipidemic activity in high fat diet-induced hyperlipidemic Sprague-Dawley rat model assessed as reduction of blood triglyceride level at 250 mg/kg, po for 7 days (reference value: 142.4 +/- 1.53 mg/dl); type: functional
Rattus norvegicus [14] = test: Antihyperlipidemic activity in high fat diet-induced hyperlipidemic Sprague-Dawley rat model assessed as reduction of blood LDL level at 250 mg/kg, po for 7 days (reference value: 51.8 +/- 2.03 mg/dl); type: functional
Rattus norvegicus [15] = test: Antihyperlipidemic activity in high fat diet-induced hyperlipidemic Sprague-Dawley rat model assessed as increase of blood HDL level at 250 mg/kg, po for 7 days (reference value: 18.6 +/- 1.36 mg/dl); type: functional

SMILES: Nc1ccc(C(=O)CNc2nc(-c3ccc(OCC(=O)O)cc3)cs2)cc1
- Activity (Rattus norvegicus [1]): 237.333 g
- Activity (Rattus norvegicus [2]): 12 cm
- Activity (Rattus norvegicus [3]): Toxic
- Activity (Rattus norvegicus [4]): 77.6 mg/dL
- Activity (Rattus norvegicus [5]): 110.4 mg/dL
- Activity (Rattus norvegicus [6]): 36.8 mg/dL
- Activity (Rattus norvegicus [7]): 27 mg/dL
- Activity (Rattus norvegicus [8]): 26.2 mg/dL

SMILES: CC(=O)Nc1nc(-c2ccc(OCC(=O)O)cc2)cs1
- Activity (Rattus norvegicus [1]): 250.833 g
- Activity (Rattus norvegicus [2]): 12.516 cm
- Activity (Rattus norvegicus [3]): Non-toxic
- Activity (Rattus norvegicus [4]): 104 mg/dL
- Activity (Rattus norvegicus [5]): 107.6 mg/dL
- Activity (Rattus norvegicus [6]): 51.4 mg/dL
- Activity (Rattus norvegicus [7]): 31.8 mg/dL
- Activity (Rattus norvegicus [8]): 22.6 mg/dL

SMILES: O=C(O)COc1ccc(-c2csc(NC(=O)c3ccccc3)n2)cc1
- Activity (Rattus norvegicus [1]): 239.666 g
- Activity (Rattus norvegicus [2]): 13.1 cm
- Activity (Rattus norvegicus [3]): Toxic
- Activity (Rattus norvegicus [4]): 89.2 mg/dL
- Activity (Rattus norvegicus [5]): 114.6 mg/dL
- Activity (Rattus norvegicus [6]): 34.2 mg/dL
- Activity (Rattus norvegicus [7]): 28.4 mg/dL
- Activity (Rattus norvegicus [8]): 25 mg/dL

SMILES: CCC(=O)Nc1nc(-c2ccc(OCC(=O)O)cc2)cs1
- Activity (Rattus norvegicus [1]): 224.166 g
- Activity (Rattus norvegicus [2]): 10.483 cm
- Activity (Rattus norvegicus [3]): Toxic
- Activity (Rattus norvegicus [4]): 86.6 mg/dL
- Activity (Rattus norvegicus [5]): 103.6 mg/dL
- Activity (Rattus norvegicus [6]): 33 mg/dL
- Activity (Rattus norvegicus [7]): 30.4 mg/dL
- Activity (Rattus norvegicus [8]): 21 mg/dL

SMILES: O=C(O)COc1ccc(-c2csc(NC(=O)CCl)n2)cc1
- Activity (Rattus norvegicus [1]): 230.666 g
- Activity (Rattus norvegicus [2]): 9.5 cm
- Activity (Rattus norvegicus [3]): Toxic
- Activity (Rattus norvegicus [4]): 92 mg/dL
- Activity (Rattus norvegicus [5]): 118.4 mg/dL
- Activity (Rattus norvegicus [6]): 34.8 mg/dL
- Activity (Rattus norvegicus [7]): 34.4 mg/dL
- Activity (Rattus norvegicus [8]): 28 mg/dL

SMILES: O=C(O)COc1ccc(-c2csc(NCc3ccccc3)n2)cc1
- Activity (Rattus norvegicus [1]): 248.5 g
- Activity (Rattus norvegicus [2]): 13.066 cm
- Activity (Rattus norvegicus [3]): Toxic
- Activity (Rattus norvegicus [4]): 122.2 mg/dL
- Activity (Rattus norvegicus [5]): 140.2 mg/dL
- Activity (Rattus norvegicus [6]): 53.8 mg/dL
- Activity (Rattus norvegicus [7]): 20.2 mg/dL
- Activity (Rattus norvegicus [8]): 22.4 mg/dL

SMILES: O=C(O)COc1ccc(-c2csc(NCC(=O)c3ccc(Cl)cc3)n2)cc1
- Activity (Rattus norvegicus [1]): 220.5 g
- Activity (Rattus norvegicus [2]): 12.35 cm
- Activity (Rattus norvegicus [3]): Toxic
- Activity (Rattus norvegicus [4]): 119.2 mg/dL
- Activity (Rattus norvegicus [5]): 136.6 mg/dL
- Activity (Rattus norvegicus [6]): 50 mg/dL
- Activity (Rattus norvegicus [7]): 18.6 mg/dL
- Activity (Rattus norvegicus [8]): 27.2 mg/dL

SMILES: O=C(O)COc1ccc(-c2csc(NCC(=O)c3ccc([N+](=O)[O-])cc3)n2)cc1
- Activity (Rattus norvegicus [1]): 258.166 g
- Activity (Rattus norvegicus [2]): 12.85 cm
- Activity (Rattus norvegicus [3]): Non-toxic
- Activity (Rattus norvegicus [4]): 106.8 mg/dL
- Activity (Rattus norvegicus [5]): 122.8 mg/dL
- Activity (Rattus norvegicus [6]): 43.2 mg/dL
- Activity (Rattus norvegicus [7]): 24.6 mg/dL
- Activity (Rattus norvegicus [8]): 20.2 mg/dL

SMILES: CC(C)OC(=O)C(C)(C)Oc1ccc(C(=O)c2ccc(Cl)cc2)cc1 [FENOFIBRATE]
- Activity (Rattus norvegicus [9]): 229.666 g
- Activity (Rattus norvegicus [10]): 9.5 cm
- Activity (Rattus norvegicus [11]): Toxic
- Activity (Rattus norvegicus [12]): 83.2 mg/dL
- Activity (Rattus norvegicus [13]): 91.6 mg/dL
- Activity (Rattus norvegicus [14]): 37.2 mg/dL
- Activity (Rattus norvegicus [15]): 28.4 mg/dL
